# Results taken from publication PMC9948168, “Vanillin-Based Indolin-2-one Derivative Bearing a Pyridyl Moiety as a Promising Anti-Breast Cancer Agent via Anti-Estrogenic Activity” (ACS Omega, 2023).
# Values joined by “and” are separate entries in the source; they are usually repeats but may differ in a detail not shown here. Identical values can stand only once.
# Tests used:
# Solubility test by HPLC = assay type: physicochemical
# Excerpt: Studying drug solubility is a crucial part of the pre-formulation study. It is an integral phase that every drug has been through in any development process to determine its bioavailability and the best excipients used during formulation. The solubility of compound 6j was detected using HPLC in methanol, ethanol, and acetonitrile. […] With such results, compound 6j requires the addition of a surfactant to increase its solubility, especially in water. Different types of surfactants could be used to study their effect on increasing solubility in future plans. We see that this compound has the potential to go through the formulation study. […] Accordingly, the active compound 6j was analyzed with SwissADME. The physicochemical properties of compound 6j, molecular weight (392.83 g/mol), fraction Csp3 (0.09), rotatable bonds (5), H-bond acceptors (4), H-bond donors (1), molar refractivity (112.41), and topological polar surface area (TPSA) (60.45 Å^2) were measured. For lipophilicity, log Po/w (XLOGP3) (3.93), log Po/w (WLOGP) (3.98), log Po/w (MLOGP) (2.66), log Po/w (SILICOS-IT) (5.03) and consensus It was measured as log Po/w (3.75). […] The drug-likeness status of 6j was detected as suitable according to Lipinski, Ghose, Veber, Egan, and Muegge’s limited rules.[44] […]
# [1] = tested on: estrogen-induced uterotrophic effect; experiment: In vivo anti-estrogenic (anti-uterotrophic) activity, immature rat model; set-up: species or system Wistar immature female rats; conditions: oral, 20 mg/kg (tamoxifen 20 mg/kg/day, 6j equimolar per method), 3 days, with estradiol 10 μg/kg/day s.c.; immature female rats
# Method: The anti-estrogenic activity was assessed as previously described.[65]−[67] All experiments were carried out in accordance with the recommendations of the […] Animal Care and Use Committee. The experimental protocol was approved by “The Commission on the Ethics of Scientific Research”, Faculty of Pharmacy, Minia University (no. ES30/2021). 20-day-old Wistar immature female rats (40–50 g) from the animal care facility of Nahda University at Beni Suef (NUB) were allowed to acclimatize to lab conditions for 3 days before the experiment with free access to food and water. Estradiol was diluted in olive oil and subcutaneously injected on the loose dorsal skin in a dose of 10 μg/kg/day. […] Both compounds were dissolved in a mixture of DMSO, Tween 20, and saline (1:1:8, respectively) and orally administered. The rats were randomly assigned to […] (n = 6) subjected to daily s.c. injections of estradiol, except for the control group. […] On the 4th day, all rats were sacrificed by cervical dislocation, and the uteri were dissected free of fat and weighed immediately. […] The results were expressed as percent inhibition from the formula [drawing 1] […] It is noteworthy that doses of the tested compounds are calculated on a molar basis. […] Values are expressed as mean ± SEM.
# ER-α = experiment: In vitro ER-α inhibitory ELISA assay in MCF-7 cells; assay type: cell-based, human; conditions: 1 μg/mL, 24 h
# Method: An in vitro ER-α inhibitory ELISA assay was performed using a Human ER-α/Estrogen Receptor ELISA Kit (Sandwich ELISA) (Lifespan Biosciences, Seattle, Washington, USA) as previously described.[64] The cells were plated at a density of 2000 cells/well in a 96-well plate. […] After 24 h, the pellets of the cells were collected by centrifugation. The cells were washed three times with PBS and then lysed by ultrasonication, and the supernatant was collected for testing. The wells were loaded with 100 μL of either standards or samples and incubated for 90 min at 37 °C. The wells were washed with 1× wash buffer for removing any unbound sample and 100 μL 1× biotinylated detection antibody was next put in and incubated for 1 h at 37 °C. The wells were rewashed with 1× wash buffer, and 100 μL 1× HRP conjugate was then added and incubated for 30 min at 37 °C. A third wash with 1× wash buffer was done and 90 μL of the TMB substrate was added. The TMB substrate reacted with the HRP enzyme, ensuring a color development, and the reaction was terminated using 50 μL of a stop solution. Finally, the optical density (OD) of the well was measured at a wavelength of 450 nm ± 2 nm. The OD of an unknown sample was calculated by correlation with a standard curve generated by standards with known concentrations.
compound,measurement,setting,value
COc1cc(C=C2C(=O)Nc3ccc(Cl)cc32)ccc1OCc1ccccn1 (mixture of isomers) [6j],water solubility,Solubility test by HPLC,did not detect any water solubility
same,anti-uterotrophic activity (inhibition of estrogen-induced uterine weight),[1],38%
same,ER-α pg/mL (mean ± SEM),ER-α,424.9 ± 17.2 pg/mL
same,inhibition (%) of ER-α,ER-α; compared to control,62% and 62.4%
